Patent US8410089B2, “Fused heterocyclic ring compound” (Takeda Pharmaceutical Company Limited, priority 2009, dated 2013)

What follows are molecules tested against T1, human GPR119 (Homo sapiens, UniProt Q8TDV5) (assay: Human GPR119 agonist activity with increase of intracellular cAMP concentration as index (CRE-luciferase reporter assay in hGPR119/CRE-luc/CHO(dhfr-) cells)). Conditions: 1 μM test compound, 2 hr incubation; luciferase activity with 10 μM N-[4-(methylsulfonyl)phenyl]-5-nitro-6-{4-[4-(trifluoromethoxy)phenoxy]piperidin-1-yl}pyrimidin-4-amine = 100%, DMSO = 0%.
T1 construct: expressed in transfected cells
T1 sequence (Q8TDV5 1-335): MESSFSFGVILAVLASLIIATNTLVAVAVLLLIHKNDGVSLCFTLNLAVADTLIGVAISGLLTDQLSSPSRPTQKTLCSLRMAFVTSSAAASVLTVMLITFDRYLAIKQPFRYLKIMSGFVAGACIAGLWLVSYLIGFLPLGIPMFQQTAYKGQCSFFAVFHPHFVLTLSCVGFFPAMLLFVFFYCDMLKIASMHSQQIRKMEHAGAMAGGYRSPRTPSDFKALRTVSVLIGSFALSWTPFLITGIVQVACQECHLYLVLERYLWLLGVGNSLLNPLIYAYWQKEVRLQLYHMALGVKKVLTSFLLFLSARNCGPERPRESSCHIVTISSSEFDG
Format: cell-based
Method: Evaluation of Human GPR119 Agonist Activity with Increase of Intracellular Camp Concentration as Index
(1) Construction of Expression Plasmid of Human GPR119 Gene
Using High Fidelity RNA PCR Kit (Takara Bio Inc.), human GPR119 gene was cloned by PCR using cDNA library synthesized from human brain mRNA (Clontech) as a template and synthetic DNA having the following sequence. Primer 1 and Primer 2 were is prepared by adding cleavage sites for Sal I and Nhe I based on the base sequence information of human GPR119 gene.
PCR was performed using Pyrobest DNA polymerase (Takara Bio Inc.). The obtained PCR product was cloned to pUC118 (Takara Bio Inc.), and the base sequence was […] and digested with restriction enzymes Sal I, Nhe I. The obtained DNA fragment was inserted into an animal cell expression vector pAKKO-111H (plasmid same as pAKKO-1.111H described in Biochem. Biophys. Acta, Hinuma, S. et al., 1219, 251-259 (1994)) similarly digested with Sal I, Nhe I, whereby an expression plasmid pAKKO-111H/hGPR119 was prepared.
(2) Construction of Reporter Plasmid
Zeocin resistance gene was cloned by PCR using plasmid pcDNA3.1/Zeo (Invitrogen) as a template, synthetic DNA having the following sequences wherein cleavage sites for restriction enzymes Sal I and BamH I are added to before and after a region containing SV40 Ori and a region containing SV40pA, which are located at the upstream and downstream of Zeocin resistance gene of this plasmid, as a primer set, and KOD polymerase (TOYOBO).
The obtained PCR product was inserted into pCR-BluntII (Invitrogen). A fragment containing a Zeocine resistance gene obtained by digesting the plasmid with restriction enzymes Sal I and BamH I was inserted into plasmid pGL3(R2.2)-Basic Vector (promega) similarly digested with Sal I and Bam HI to give Zeocin resistance plasmid pGL3(R2.2)/Zeocin-Basic Vector.
A reporter plasmid containing 4 cAMP responsive elements (CRE) connected in tandem was prepared using the following 5′-terminal phosphorylated synthetic DNA.
First, a DNA fragment containing a CRE sequence obtained by annealing CRE-Upper and CRE-Lower and elongating with KOD polymerase was inserted into pCR-BluntII to give pCR-BluntII-CRE. A fragment cleaved from pCR-BluntII-CRE with restriction enzymes Kpn I and Hind III was inserted into pGL3(R2.2)/Zeocin-Basic Vector similarly digested with Kpn I and Hind III to give reporter plasmid pGL3(R2.2)/Zeocin-CRE-luc.
(3) Introduction of Human GPR119 Gene and Reporter Gene into CHO(dhfr-) Cells and Acquirement of Expressing Cell
CHO(dhfr-) cells in MEMα (minimum essential medium alpha) (Nikken bio medical laboratory) medium containing 10% fetal bovine serum, 100 U/mL penicillin and 100 μg/mL streptomycin (Invitrogen) were detached by a treatment with trypsin-EDTA (ethylenediaminetetraacetic acid) (Invitrogen), the cells were washed with PBS (Phosphate-buffered saline), centrifuged (1000 rpm, 5 min) and suspended in PBS at a cell density of 1×10^7 cells/mL. Then, DNA was introduced into the cell by a gene pulser (Bio-Rad) under the following conditions. That is, 1×10^7 cells, plasmid pGL3(R2.2)/Zeocin-CRE-luc (15 μg), which was obtained in (2) and linearized with BssH II, and pAKKO-111H (5 μg) were added in a 0.4 cm gap cuvette, and the mixture was electroporated at voltage […], capacitance 950 μF. The cells were placed in the above-mentioned medium, cultured for 24 hr, and the cells were detached and centrifuged. The cells were diluted to 250 cells/well, plated in a 96 well plate (Corning) and cultivated in a CO2 incubator at 37° C. to give a transformant. Then, forskolin was added to the obtained transformant and a strain (CRE-luc/CHO(dhfr-) cell) that induces luciferase expression was selected. […]

| SMILES | GPR119 agonist activity (%) at 1 μM concentration [%] |
| --- | --- |
| CC(C)OC(=O)N1CCC(Oc2cc(N3CCc4cc(S(C)(=O)=O)ccc43)ncn2)CC1 [Example 18, 1-methylethyl 4-({6-[5-(methylsulfonyl)-2,3-dihydro-1H-indol-1-yl]pyrimidin-4-yl}oxy)piperidine-1-carboxylate] | 74 |
| CCc1cnc(N2CCC(Oc3cc(N4CCc5cc(C(=O)N6CCOCC6)ccc54)ncn3)CC2)nc1 [Example 27, [1-(6-{[1-(5-ethylpyrimidin-2-yl)piperidin-4-yl]oxy}pyrimidin-4-yl)-2,3-dihydro-1H-indol-5-yl](morpholin-4-yl)methanone] | 77 |
| CC(C)OC(=O)N1CCC(Oc2cc(N3CCc4cc(NC(=O)[C@H]5CCCO5)ccc43)ncn2)CC1 [Example 51, isopropyl 4-{[6-(5-{[(2R)-tetrahydrofuran-2-ylcarbonyl]amino}-2,3-dihydro-1H-indol-1-yl)pyrimidin-4-yl]oxy}piperidine-1-carboxylate] | 83 |
| CC(C)(C)SC(=O)N1CCC(Oc2cc(N3CCc4cc(S(C)(=O)=O)ccc43)ncn2)CC1 [Example 36, S-tert-butyl 4-({6-[5-(methylsulfonyl)-2,3-dihydro-1H-indol-1-yl]pyrimidin-4-yl}oxy)piperidine-1-carbothioate] | 87 |
| CC(C)OC(=O)N1CCC(n2ccc3c(N4CCc5cc([N+](=O)[O-])ccc54)ncnc32)CC1 [Example 7, 1-methylethyl 4-[4-(5-nitro-2,3-dihydro-1H-indol-1-yl)-7H-pyrrolo[2,3-d]pyrimidin-7-yl]piperidine-1-carboxylate] | 96 |
| CC(C)(C)OC(=O)N1CC(Cn2ccc3c(N4CCc5cc(S(C)(=O)=O)ccc54)ncnc32)C1 [Example 14, tert-butyl 3-({4-[5-(methylsulfonyl)-2,3-dihydro-1H-indol-1-yl]-7H-pyrrolo[2,3-d]pyrimidin-7-yl}methyl)azetidine-1-carboxylate] | 82 |
| CCc1cnc(N2CCC(N(c3cc(N4CCc5cc(S(C)(=O)=O)ccc54)ncn3)C(F)(F)F)CC2)nc1 [Example 69, N-[1-(5-ethylpyrimidin-2-yl)piperidin-4-yl]-6-[5-(methylsulfonyl)-2,3-dihydro-1H-indol-1-yl]-N-(trifluoromethyl)pyrimidin-4-amine] | 98 |
| CSC(=O)N1CCC(Oc2cc(N3CCc4cc(S(C)(=O)=O)ccc43)ncn2)CC1 [Example 61, S-methyl 4-({6-[5-(methylsulfonyl)-2,3-dihydro-1H-indol-1-yl]pyrimidin-4-yl}oxy)piperidine-1-carbothioate] | 85 |
| CC(C)SC(=O)N1CCC(Oc2cc(N3CCc4cc(S(C)(=O)=O)cc(F)c43)ncn2)CC1 [Example 62, S-(1-methylethyl) 4-({6-[7-fluoro-5-(methylsulfonyl)-2,3-dihydro-1H-indol-1-yl]pyrimidin-4-yl}oxy)piperidine-1-carbothioate] | 83 |

Next, values leading:

| GPR119 agonist activity (%) at 1 μM concentration [%] | SMILES |
| --- | --- |
| 80 | CC(C)c1noc(N2CCC(Oc3cc(N4CCc5cc(N6CCCC6=O)ccc54)ncn3)CC2)n1 [Example 46, 1-{1-[6-({1-[3-(1-methylethyl)-1,2,4-oxadiazol-5-yl]piperidin-4-yl}oxy)pyrimidin-4-yl]-2,3-dihydro-1H-indol-5-yl}pyrrolidin-2-one] |
| 81 | COCC(=O)Nc1ccc2c(c1)CCN2c1cc(OC2CCN(C(=O)SC(C)C)CC2)ncn1 [Example 60, S-(1-methylethyl) 4-[(6-{5-[(methoxyacetyl)amino]-2,3-dihydro-1H-indol-1-yl}pyrimidin-4-yl)oxy]piperidine-1-carbothioate] |
| 77 | COCC(=O)Nc1ccc2c(c1)CCN2c1cc(OC2CCN(C(=O)OC(C)C)CC2)ncn1 [Example 59, isopropyl 4-[(6-{5-[(methoxyacetyl)amino]-2,3-dihydro-1H-indol-1-yl}pyrimidin-4-yl)oxy]piperidine-1-carboxylate] |
| 88 | Cc1cnc(N2CCC(N(c3cc(N4CCc5cc(S(C)(=O)=O)ccc54)ncn3)C(F)(F)F)CC2)nc1 [Example 73, N-[1-(5-methylpyrimidin-2-yl)piperidin-4-yl]-6-[5-(methylsulfonyl)-2,3-dihydro-1H-indol-1-yl]-N-(trifluoromethyl)pyrimidin-4-amine] |
| 82 | CC(C)SC(=O)N1CCC(Oc2cc(N3CCc4cc(NC(=O)CO)ccc43)ncn2)CC1 [Example 54, S-(1-methylethyl) 4-[(6-{5-[(hydroxyacetyl)amino]-2,3-dihydro-1H-indol-1-yl}pyrimidin-4-yl)oxy]piperidine-1-carbothioate] |
| 88 | CN(CCO)C(=O)c1ccc2c(c1)CCN2c1cc(OC2CCN(C(=O)OC(C)(C)C)CC2)ncn1 [Example 20, tert-butyl 4-[(6-{5-[(2-hydroxyethyl)(methyl)carbamoyl]-2,3-dihydro-1H-indol-1-yl}pyrimidin-4-yl)oxy]piperidine-1-carboxylate] |
| 62 | CC(C)(C)OC(=O)N1CCC(n2ccc3c(N4CCc5cc(S(C)(=O)=O)ccc54)ncnc32)CC1 [Example 1, tert-butyl 4-{4-[5-(methylsulfonyl)-2,3-dihydro-1H-indol-1-yl]-7H-pyrrolo[2,3-d]pyrimidin-7-yl}piperidine-1-carboxylate] |
| 75 | CC(C)SC(=O)N1CCC(Oc2cc(N3CCc4cc(N5CCCC5=O)ccc43)ncn2)CC1 [Example 45, S-(1-methylethyl) 4-({6-[5-(2-oxopyrrolidin-1-yl)-2,3-dihydro-1H-indol-1-yl]pyrimidin-4-yl}oxy)piperidine-1-carbothioate] |
| 93 | CC(C)OC(=O)N1CCC(n2ccc3c(N4CCc5cc(N6CCCC6=O)ccc54)ncnc32)CC1 [Example 10, 1-methylethyl 4-{4-[5-(2-oxopyrrolidin-1-yl)-2,3-dihydro-1H-indol-1-yl]-7H-pyrrolo[2,3-d]pyrimidin-7-yl}piperidine-1-carboxylate] |
| 77 | CC(C)(C)OC(=O)N1CCCC(n2ccc3c(N4CCc5cc(S(C)(=O)=O)ccc54)ncnc32)CC1 (centres unmarked) [Example 16, tert-butyl 4-{4-[5-(methylsulfonyl)-2,3-dihydro-1H-indol-1-yl]-7H-pyrrolo[2,3-d]pyrimidin-7-yl}azepane-1-carboxylate] |
| 79 | CCc1cnc(N2CCC(Oc3cc(N4CCc5cc(C(=O)NC(C)CO)ccc54)ncn3)CC2)nc1 (centres unmarked) [Example 23, 1-(6-{[1-(5-ethylpyrimidin-2-yl)piperidin-4-yl]oxy}pyrimidin-4-yl)-N-(1-hydroxypropan-2-yl)-2,3-dihydro-1H-indole-5-carboxamide] |
